Experimental data as given in patent publication US20230365537A1, “POLO LIKE KINASE 4 INHIBITORS” (ORIC Pharmaceuticals, Inc., priority 2021, published 2023).

Key:
human recombinant PLK4 = human recombinant PLK4 (Homo sapiens (Human), UniProt O00444); assay: PLK4 Biochemical Assay (ADP-Glo); conditions: 0.5 nM PLK4, 8.0 µM ATP, 4.7 µM MBP, 6 hours at RT
Method in brief: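 Luminescent ADP-Glo detection quantified ADP production, with ATP depletion for 40 min and detection for 30 min at room temperature. Compound and PLK4 (1.0 nM stock addition) were preincubated 15 min in HEPES pH 7.5 buffer containing MgCl2, EGTA, DTT, Brij-35 and BSA. IC50 values were obtained by four-parameter nonlinear regression.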

CHP-134 cells = assay: CHP134 CellTiter-Glo (CTG) Assay; type: cell-based; conditions: Homo sapiens, CHP-134, 120 h, 5 days, viable cells by CellTiter-Glo
Method in brief: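 Nine-point 1:3 dilution series, diluted into growth media, added in quadruplicate to CHP-134 cells plated 16 h earlier at 200 cells/well.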

[1] = molecular target: human recombinant Aurora A (Homo sapiens (Human), UniProt O14965); assay: Aurora A Kinase Biochemical Assay (ADP-Glo); conditions: ratio of Aurora A IC50 to PLK4 IC50 (selectivity)
human recombinant Aurora A, sequence (O14965 whole entry): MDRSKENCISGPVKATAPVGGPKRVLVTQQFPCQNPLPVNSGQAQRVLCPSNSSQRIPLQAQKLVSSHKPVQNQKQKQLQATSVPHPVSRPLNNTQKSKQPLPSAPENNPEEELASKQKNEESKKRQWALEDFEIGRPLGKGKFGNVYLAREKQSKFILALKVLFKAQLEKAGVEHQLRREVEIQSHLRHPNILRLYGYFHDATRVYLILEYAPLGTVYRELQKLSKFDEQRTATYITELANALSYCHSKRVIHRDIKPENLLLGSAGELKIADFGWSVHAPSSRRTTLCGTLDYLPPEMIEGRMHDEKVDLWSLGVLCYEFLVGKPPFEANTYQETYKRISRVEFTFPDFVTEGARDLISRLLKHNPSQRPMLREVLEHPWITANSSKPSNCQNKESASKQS

[2] = molecular target: human recombinant Aurora B (Homo sapiens (Human), UniProt Q96GD4); assay: Aurora B Kinase Biochemical Assay (ADP-Glo); conditions: ratio of Aurora B IC50 to PLK4 IC50 (selectivity)
human recombinant Aurora B, sequence (Q96GD4 whole entry): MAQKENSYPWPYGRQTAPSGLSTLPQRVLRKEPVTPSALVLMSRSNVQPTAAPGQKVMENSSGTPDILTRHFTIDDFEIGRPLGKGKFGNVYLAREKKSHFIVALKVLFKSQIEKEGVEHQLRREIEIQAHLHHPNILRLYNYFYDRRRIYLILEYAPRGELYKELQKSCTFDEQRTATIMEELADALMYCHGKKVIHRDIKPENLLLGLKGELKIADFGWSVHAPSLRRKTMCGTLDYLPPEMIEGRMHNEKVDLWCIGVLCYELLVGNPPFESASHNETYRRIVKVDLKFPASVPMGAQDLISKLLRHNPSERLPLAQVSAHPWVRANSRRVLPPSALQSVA
Method in brief: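 IC50 derived by four-parameter nonlinear fit of ADP-Glo luminescence (ADP produced). Compound was preincubated 15 min at RT with 20 nM recombinant human Aurora B, in 50 mM HEPES pH 7.5, 10 mM MgCl2, 1 mM EGTA, 1 mM DTT, 0.01% Brij-35/BSA.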

human recombinant PLK4, sequence (O00444 whole entry): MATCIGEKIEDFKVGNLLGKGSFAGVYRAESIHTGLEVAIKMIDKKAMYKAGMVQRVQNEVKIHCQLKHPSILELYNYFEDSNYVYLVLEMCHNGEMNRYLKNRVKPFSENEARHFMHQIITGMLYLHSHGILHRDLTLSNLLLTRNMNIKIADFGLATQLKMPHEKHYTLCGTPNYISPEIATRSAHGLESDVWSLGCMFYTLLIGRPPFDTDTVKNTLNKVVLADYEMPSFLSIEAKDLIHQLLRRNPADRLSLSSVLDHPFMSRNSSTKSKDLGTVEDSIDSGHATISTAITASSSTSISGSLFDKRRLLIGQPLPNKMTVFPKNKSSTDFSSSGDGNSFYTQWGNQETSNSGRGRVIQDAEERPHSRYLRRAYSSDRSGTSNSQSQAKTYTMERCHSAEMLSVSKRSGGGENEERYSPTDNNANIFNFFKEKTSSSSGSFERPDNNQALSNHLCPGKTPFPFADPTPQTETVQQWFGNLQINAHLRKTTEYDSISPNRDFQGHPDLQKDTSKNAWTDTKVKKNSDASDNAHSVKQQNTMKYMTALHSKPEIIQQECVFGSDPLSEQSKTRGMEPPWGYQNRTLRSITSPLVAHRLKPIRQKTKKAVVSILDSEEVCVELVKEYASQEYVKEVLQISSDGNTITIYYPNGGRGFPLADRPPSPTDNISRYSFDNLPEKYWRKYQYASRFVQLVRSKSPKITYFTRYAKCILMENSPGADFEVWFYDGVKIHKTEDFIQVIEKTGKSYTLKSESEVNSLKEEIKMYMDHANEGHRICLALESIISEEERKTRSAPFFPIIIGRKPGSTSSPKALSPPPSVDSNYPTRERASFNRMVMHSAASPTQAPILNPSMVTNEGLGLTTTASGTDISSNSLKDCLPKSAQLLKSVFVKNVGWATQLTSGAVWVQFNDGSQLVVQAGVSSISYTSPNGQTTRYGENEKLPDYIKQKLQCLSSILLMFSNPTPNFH

| Structure (SMILES) | IC50 (human recombinant PLK4) | [Aurora A IC50 (nM)]/[PLK4 IC50 (nM)] [1] | [Aurora B IC50 (nM)]/[PLK4 IC50 (nM)] [2] | IC50 (CHP-134 cells) |
| --- | --- | --- | --- | --- |
| COc1ccc2c(c1)[C@]1(C[C@H]1c1ccc3c(Nc4ncnc(N5CCOCC5)c4OC)n[nH]c3c1)C(=O)N2C [Example 113, (1R,2S)-5′-methoxy-2-(3-{[5-methoxy-6-(morpholin-4-yl)pyrimidin-4-yl]amino}-1H-indazol-6-yl)-1′-methylspiro[cyclopropane-1,3′-indol]-2′(1′H)-one] | 0.0106 µM | 1888.2629 | 231.7370 | 2.52 µM |
| COc1ccc2c(c1)[C@]1(C[C@H]1c1ccc3c(Nc4nc(N5CC(O)C5)ncc4OC)n[nH]c3c1)C(=O)N2 [Example 114] | 0.00209 µM | 590.1482 | 811.5734 | 10 µM |
| COc1ccc2c(c1)[C@]1(C[C@H]1c1ccc3c(Nc4cncc(C5COC5)n4)n[nH]c3c1)C(=O)N2 [Example 115, (1R,2S)-5′-methoxy-2-(3-{[6-(oxetan-3-yl)pyrazin-2-yl]amino}-1H-indazol-6-yl)spiro[cyclopropane-1,3′-indol]-2′(1′H)-one] | 0.00804 µM | 132.6035 | 186.3415 | 3.46 µM |
| COc1ccc2c(c1)[C@]1(C[C@H]1c1ccc3c(Nc4nc(C(C)C)ncc4Cl)n[nH]c3c1)C(=O)N2 [Example 117, (1R,2S)-2-(3-{[5-chloro-2-(propan-2-yl)pyrimidin-4-yl]amino}-1H-indazol-6-yl)-5′-methoxyspiro[cyclopropane-1,3′-indol]-2′(1′H)-one] | 0.00232 µM | 1388.1947 | 906.5058 | 0.109 µM |
| COc1ccc2c(c1)[C@]1(C[C@H]1c1ccc3c(Nc4nc(C5COC5)ncc4Cl)n[nH]c3c1)C(=O)N2 [Example 118, (1R,2S)-2-(3-{[5-chloro-2-(oxetan-3-yl)pyrimidin-4-yl]amino}-1H-indazol-6-yl)-5′-methoxyspiro[cyclopropane-1,3′-indol]-2′(1′H)-one] | 0.00732 µM | 457.0413 | 902.3357 | 2.36 µM |
| COc1ccc2c(c1)[C@]1(C[C@H]1c1ccc3c(Nc4nc(N5CC(O)C5)ncc4Cl)n[nH]c3c1)C(=O)N2 [Example 120, (1R,2S)-2-(3-{[5-chloro-2-(3-hydroxyazetidin-1-yl)pyrimidin-4-yl]amino}-1H-indazol-6-yl)-5′-methoxyspiro[cyclopropane-1,3′-indol]-2′(1′H)-one] | 0.00381 µM | 444.0366 | 684.6657 | 10 µM |
| COc1ccc2c(c1)[C@]1(C[C@H]1c1ccc3c(Nc4nc(C)ncc4OC)n[nH]c3c1F)C(=O)N2 [Example 123, (1R,2R)-2-{7-fluoro-3-[(5-methoxy-2-methylpyrimidin-4-yl)amino]-1H-indazol-6-yl}-5′-methoxyspiro[cyclopropane-1,3′-indol]-2′(1′H)-one] | 0.0048 µM | 667.5698 | 84.1 | 2.11 µM |
| COc1ccc2c(c1)[C@]1(C[C@H]1c1ccc3c(Nc4nc(C(C)C)ncc4OC)n[nH]c3c1)C(=O)N2 [Example 125, (1R,2S)-5′-methoxy-2-(3-{[5-methoxy-2-(propan-2-yl)pyrimidin-4-yl]amino}-1H-indazol-6-yl)spiro[cyclopropane-1,3′-indol]-2′(1′H)-one] | 0.000833 µM | 1323.9707 | 495.7388 | 0.16 µM |
| COc1ccc2c(c1)[C@]1(C[C@H]1c1ccc3c(Nc4nc(C(C)C)ncc4OC(F)F)n[nH]c3c1)C(=O)N2 [Example 128, (1R,2S)-2-(3-{[5-(difluoromethoxy)-2-(propan-2-yl)pyrimidin-4-yl]amino}-1H-indazol-6-yl)-5′-methoxyspiro[cyclopropane-1,3′-indol]-2′(1′H)-one] | 0.00289 µM | 2750.2597 | 1337.0280 | 1.49 µM |
| COc1ccc2c(c1)[C@]1(C[C@H]1c1ccc3c(Nc4ncnc(N5CC6(COC6)C5)c4Cl)n[nH]c3c1)C(=O)N2 [Example 132, (1R,2S)-2-(3-{[5-chloro-6-(2-oxa-6-azaspiro[3.3]heptan-6-yl)pyrimidin-4-yl]amino}-1H-indazol-6-yl)-5′-methoxyspiro[cyclopropane-1,3′-indol]-2′(1′H)-one] | 0.00215 µM | 5290.8329 | 249.5114 | 0.618 µM |
| COc1ccc2c(c1)[C@]1(C[C@H]1c1cc3[nH]nc(Nc4nc(C)ncc4OC)c3cc1F)C(=O)N2 [Example 144, (1R,2R)-2-{5-fluoro-3-[(5-methoxy-2-methylpyrimidin-4-yl)amino]-1H-indazol-6-yl}-5′-methoxyspiro[cyclopropane-1,3′-indol]-2′(1′H)-one] | 0.00141 µM | 852.7955 | 61.4367 | 0.75 µM |
| COc1ccc2c(c1)[C@]1(C[C@H]1c1ccc3c(Nc4cc(C)nnc4OC)n[nH]c3c1)C(=O)N2 [Example 145, (1R,2S)-5′-methoxy-2-{3-[(3-methoxy-6-methylpyridazin-4-yl)amino]-1H-indazol-6-yl}spiro[cyclopropane-1,3′-indol]-2′(1′H)-one] | 0.00582 µM | 1001.5467 | 280.8043 | 2.92 µM |

Second part, led by results:

| IC50 (human recombinant PLK4) | [Aurora A IC50 (nM)]/[PLK4 IC50 (nM)] [1] | [Aurora B IC50 (nM)]/[PLK4 IC50 (nM)] [2] | Structure (SMILES) | IC50 (CHP-134 cells) |
| --- | --- | --- | --- | --- |
| 0.00289 µM | 788.5813 | 483.7370 | COc1ccc2c(c1)[C@]1(C[C@H]1c1ccc3c(Nc4nc(C5CC5)ncc4Cl)n[nH]c3c1)C(=O)N2 [Example 116, (1R,2S)-2-(3-((5-chloro-2-cyclopropylpyrimidin-4-yl)amino)-1H-indazol-6-yl)-5′-methoxyspiro[cyclopropane-1,3′-indolin]-2′-one] | 0.134 µM |
| 0.00159 µM | 870.2770 | 973.5516 | COc1ccc2c(c1)[C@]1(C[C@H]1c1ccc3c(Nc4nc(C5COC5)ncc4OC)n[nH]c3c1)C(=O)N2 [Example 119, (1R,2S)-5′-methoxy-2-(3-{[5-methoxy-2-(oxetan-3-yl)pyrimidin-4-yl)amino}-1H-indazol-6-yl)spiro[cyclopropane-1,3′-indol]-2′(1′H)-one] | 2.66 µM |
| 0.00179 µM | 875.6967 | 230.8807 | COc1ccc2c(c1)[C@]1(C[C@H]1c1ccc3c(Nc4nc(C)ncc4OC(F)F)n[nH]c3c1)C(=O)N2 [Example 121, (1R,2S)-2-(3-{[5-(difluoromethoxy)-2-methylpyrimidin-4-yl]amino}-1H-indazol-6-yl)-5′-methoxyspiro[cyclopropane-1,3′-indol]-2′(1′H)-one] | 5.32 µM |
| 0.00901 µM | 66.2192 | 92.0568 | COc1cnc(C)nc1Nc1n[nH]c2cc([C@@H]3C[C@@]34C(=O)Nc3ccc(C)cc34)ccc12 [Example 126, (1R,2S)-2-{3-[(5-methoxy-2-methylpyrimidin-4-yl)amino]-1H-indazol-6-yl}-5′-methylspiro[cyclopropane-1,3′-indol]-2′(1′H)-one] | 0.459 µM |
| 0.00832 µM | 43.3910 | 45.1453 | COc1cnc(C)nc1Nc1n[nH]c2cc([C@@H]3C[C@@]34C(=O)Nc3ccc(F)cc34)ccc12 [Example 133, (1R,2S)-5′-fluoro-2-{3-[(5-methoxy-2-methylpyrimidin-4-yl)amino]-1H-indazol-6-yl}spiro[cyclopropane-1,3′-indol]-2′(1′H)-one] | 0.193 µM |
| 0.00179 µM | 8849.1620 | 969.2737 | CCOc1cnc(C)nc1Nc1n[nH]c2cc([C@@H]3C[C@@]34C(=O)Nc3ccc(OC)cc34)ccc12 [Example 134, (1R,2S)-2-{3-[(5-ethoxy-2-methylpyrimidin-4-yl)amino]-1-indazol-6-yl}-5′-methoxyspiro[cyclopropane-1,3′-indol]-2′(1′H)-one] | 0.782 µM |
| 0.0166 µM | 814 | 537 | COc1ccc2c(c1)[C@]1(C[C@H]1c1ccc3c(Nc4nc(C)ncc4C4CC4)n[nH]c3c1)C(=O)N2 [Example 140, (1R,2S)-2-{3-[(5-cyclopropyl-2-methylpyrimidin-4-yl)amino]-1H-indazol-6-yl}-5′-methoxyspiro[cyclopropane-1,3′-indol]-2′(1′H)-one] | 7.76 µM |
| 0.00149 µM | 3512.4078 | 745.8082 | COc1ccc2c(c1)[C@]1(C[C@H]1c1ccc3c(Nc4nc(C)ncc4OCC4CC4)n[nH]c3c1)C(=O)N2 [Example 146, (1R,2S)-2-(3-{[5-(cyclopropylmethoxy)-2-methylpyrimidin-4-yl]amino}-1H-indazol-6-yl)-5′-methoxyspiro[cyclopropane-1,3′-indol]-2′(1′H)-one] | 0.655 µM |
